From the NIST ThermoML archive (doi:10.1016/j.jct.2018.08.013)
Several values for one entry are separate records, joined by “and”; a condition that tells them apart may be missing. Equal values may be shown once.

How the values were obtained:
[1] = xn = mol fraction of the nth substance listed; conditions: 298 K; 100 kPa; Crystal of intercomponent compound 1; X-ray diffraction; x2 = 0.477
[2] = specific heat capacity at constant pressure; xn = mol fraction of the nth substance listed; conditions: 100 kPa, Crystal of intercomponent compound 1, x2 = 0.477

[Se] [selenium] + [In]
Conditions	mass density [kg/m3]
[1]	5546

[2]
Conditions	specific heat capacity
10.11 K, relaxation calorimetry	10.21 J/K/kg and 10.22 J/K/kg and 10.23 J/K/kg
12.12 K, relaxation calorimetry	16.85 J/K/kg and 16.83 J/K/kg
12.14 K, relaxation calorimetry	16.97 J/K/kg
14.13 K, relaxation calorimetry	24.44 J/K/kg
14.15 K, relaxation calorimetry	24.49 J/K/kg
16.15 K, relaxation calorimetry	32.56 J/K/kg and 32.49 J/K/kg
16.16 K, relaxation calorimetry	32.62 J/K/kg
18.17 K, relaxation calorimetry	40.89 J/K/kg and 40.88 J/K/kg
18.18 K, relaxation calorimetry	40.87 J/K/kg
20.18 K, relaxation calorimetry	49.24 J/K/kg
20.19 K, relaxation calorimetry	49.1 J/K/kg and 49.16 J/K/kg
22.2 K, relaxation calorimetry	57.18 J/K/kg and 57.13 J/K/kg
22.21 K, relaxation calorimetry	56.97 J/K/kg
24.22 K, relaxation calorimetry	65.02 J/K/kg and 64.97 J/K/kg
24.23 K, relaxation calorimetry	64.87 J/K/kg
26.24 K, relaxation calorimetry	72.45 J/K/kg and 72.56 J/K/kg
28.25 K, relaxation calorimetry	79.57 J/K/kg
30.27 K, relaxation calorimetry	86.33 J/K/kg and 86.39 J/K/kg
32.78 K, relaxation calorimetry	94.54 J/K/kg
32.79 K, relaxation calorimetry	94.59 J/K/kg
35.31 K, relaxation calorimetry	102.49 J/K/kg and 102.64 J/K/kg
37.81 K, relaxation calorimetry	109.66 J/K/kg
37.82 K, relaxation calorimetry	109.87 J/K/kg
40.34 K, relaxation calorimetry	117.25 J/K/kg
40.35 K, relaxation calorimetry	116.73 J/K/kg and 116.68 J/K/kg
42.86 K, relaxation calorimetry	123.23 J/K/kg
42.87 K, relaxation calorimetry	122.77 J/K/kg
45.38 K, relaxation calorimetry	129.63 J/K/kg
45.39 K, relaxation calorimetry	129.32 J/K/kg
45.4 K, relaxation calorimetry	129.27 J/K/kg
47.9 K, relaxation calorimetry	135.36 J/K/kg
47.91 K, relaxation calorimetry	134.84 J/K/kg
50.41 K, relaxation calorimetry	141.5 J/K/kg
50.42 K, relaxation calorimetry	140.88 J/K/kg
50.44 K, relaxation calorimetry	140.73 J/K/kg
52.93 K, relaxation calorimetry	146.09 J/K/kg
52.95 K, relaxation calorimetry	145.42 J/K/kg
55.43 K, relaxation calorimetry	151.41 J/K/kg
55.46 K, relaxation calorimetry	150.74 J/K/kg
55.48 K, relaxation calorimetry	150.63 J/K/kg
57.97 K, relaxation calorimetry	155.28 J/K/kg
57.99 K, relaxation calorimetry	154.81 J/K/kg
60.46 K, relaxation calorimetry	160.13 J/K/kg
60.49 K, relaxation calorimetry	159.41 J/K/kg
60.52 K, relaxation calorimetry	159.25 J/K/kg
63.01 K, relaxation calorimetry	163.79 J/K/kg
63.04 K, relaxation calorimetry	162.97 J/K/kg
65.49 K, relaxation calorimetry	168.85 J/K/kg
65.53 K, relaxation calorimetry	167.77 J/K/kg
65.57 K, relaxation calorimetry	167.3 J/K/kg
68.05 K, relaxation calorimetry	171.53 J/K/kg
68.08 K, relaxation calorimetry	170.97 J/K/kg
70.52 K, relaxation calorimetry	176.23 J/K/kg
70.56 K, relaxation calorimetry	175.25 J/K/kg
70.63 K, relaxation calorimetry	173.96 J/K/kg
73.05 K, relaxation calorimetry	178.14 J/K/kg
73.09 K, relaxation calorimetry	177.31 J/K/kg
75.56 K, relaxation calorimetry	182.68 J/K/kg
75.6 K, relaxation calorimetry	181.49 J/K/kg
75.67 K, relaxation calorimetry	180.82 J/K/kg
78.13 K, relaxation calorimetry	184.75 J/K/kg
78.16 K, relaxation calorimetry	183.82 J/K/kg
80.57 K, relaxation calorimetry	189.39 J/K/kg
80.65 K, relaxation calorimetry	187.95 J/K/kg
80.71 K, relaxation calorimetry	187.02 J/K/kg
83.17 K, relaxation calorimetry	190.47 J/K/kg
83.2 K, relaxation calorimetry	189.7 J/K/kg
85.61 K, relaxation calorimetry	194.76 J/K/kg
85.69 K, relaxation calorimetry	193.42 J/K/kg
85.74 K, relaxation calorimetry	192.69 J/K/kg
88.19 K, relaxation calorimetry	195.84 J/K/kg
88.24 K, relaxation calorimetry	194.76 J/K/kg
90.63 K, relaxation calorimetry	200.23 J/K/kg
90.71 K, relaxation calorimetry	198.78 J/K/kg
90.78 K, relaxation calorimetry	197.54 J/K/kg
93.18 K, relaxation calorimetry	200.64 J/K/kg
93.24 K, relaxation calorimetry	199.45 J/K/kg
95.65 K, relaxation calorimetry	204.05 J/K/kg
95.74 K, relaxation calorimetry	202.39 J/K/kg
95.83 K, relaxation calorimetry	201.41 J/K/kg
98.2 K, relaxation calorimetry	204.15 J/K/kg
98.3 K, relaxation calorimetry	202.34 J/K/kg
100.79 K, relaxation calorimetry	205.8 J/K/kg
100.83 K, relaxation calorimetry	205.34 J/K/kg
100.91 K, relaxation calorimetry	207.4 J/K/kg
101.79 K, relaxation calorimetry	206.37 J/K/kg
101.88 K, relaxation calorimetry	205.18 J/K/kg
105.84 K, relaxation calorimetry	208.74 J/K/kg
105.86 K, relaxation calorimetry	208.07 J/K/kg
109.83 K, relaxation calorimetry	211.27 J/K/kg
109.93 K, relaxation calorimetry	209.1 J/K/kg
113.88 K, relaxation calorimetry	213.59 J/K/kg
113.93 K, relaxation calorimetry	212.1 J/K/kg
117.9 K, relaxation calorimetry	215.3 J/K/kg
117.98 K, relaxation calorimetry	213.08 J/K/kg
121.94 K, relaxation calorimetry	217.67 J/K/kg
121.97 K, relaxation calorimetry	216.38 J/K/kg
125.98 K, relaxation calorimetry	218.34 J/K/kg and 218.39 J/K/kg
130 K, relaxation calorimetry	220.35 J/K/kg
130.01 K, relaxation calorimetry	220.87 J/K/kg
133.92 K, relaxation calorimetry	223.14 J/K/kg
134.04 K, relaxation calorimetry	219.79 J/K/kg
138.04 K, relaxation calorimetry	223.76 J/K/kg
138.07 K, relaxation calorimetry	223.97 J/K/kg
141.97 K, relaxation calorimetry	225.82 J/K/kg
142.1 K, relaxation calorimetry	222.52 J/K/kg
146.07 K, relaxation calorimetry	227.01 J/K/kg
146.14 K, relaxation calorimetry	226.7 J/K/kg
150.02 K, relaxation calorimetry	228.71 J/K/kg
150.14 K, relaxation calorimetry	225.72 J/K/kg
154.13 K, relaxation calorimetry	230.11 J/K/kg
154.16 K, relaxation calorimetry	229.02 J/K/kg
162.19 K, relaxation calorimetry	232.33 J/K/kg
162.21 K, relaxation calorimetry	231.34 J/K/kg
170.26 K, relaxation calorimetry	233.51 J/K/kg
170.28 K, relaxation calorimetry	234.13 J/K/kg
178.32 K, relaxation calorimetry	235.16 J/K/kg
178.34 K, relaxation calorimetry	235.63 J/K/kg
186.37 K, relaxation calorimetry	236.76 J/K/kg
186.4 K, relaxation calorimetry	237.23 J/K/kg
194.4 K, relaxation calorimetry	238 J/K/kg
194.45 K, relaxation calorimetry	238.31 J/K/kg
202.42 K, relaxation calorimetry	239.96 J/K/kg
202.5 K, relaxation calorimetry	239.65 J/K/kg
210.44 K, relaxation calorimetry	241.2 J/K/kg
210.53 K, relaxation calorimetry	241.05 J/K/kg
218.46 K, relaxation calorimetry	241.51 J/K/kg
218.55 K, relaxation calorimetry	241.2 J/K/kg
226.5 K, relaxation calorimetry	242.85 J/K/kg
226.59 K, relaxation calorimetry	242.65 J/K/kg
234.52 K, relaxation calorimetry	243.63 J/K/kg
234.63 K, relaxation calorimetry	243.37 J/K/kg
242.56 K, relaxation calorimetry	244.4 J/K/kg
242.67 K, relaxation calorimetry	244.04 J/K/kg
250.6 K, relaxation calorimetry	245.28 J/K/kg
250.71 K, relaxation calorimetry	245.12 J/K/kg
255.57 K, relaxation calorimetry	245.59 J/K/kg
255.58 K, relaxation calorimetry	246.52 J/K/kg
258.63 K, relaxation calorimetry	245.95 J/K/kg
258.74 K, relaxation calorimetry	245.79 J/K/kg
264.04 K, relaxation calorimetry	247.24 J/K/kg
264.08 K, relaxation calorimetry	246.1 J/K/kg
265.74 K, Extra sensitive DSC	248.37 J/K/kg
266.66 K, relaxation calorimetry	246.62 J/K/kg
266.77 K, relaxation calorimetry	246.57 J/K/kg
270 K, Extra sensitive DSC	248.48 J/K/kg
272.24 K, relaxation calorimetry	248.48 J/K/kg
272.34 K, relaxation calorimetry	248.43 J/K/kg
274.69 K, relaxation calorimetry	247.7 J/K/kg
274.81 K, relaxation calorimetry	247.7 J/K/kg
275 K, Extra sensitive DSC	248.79 J/K/kg
280 K, Extra sensitive DSC	249.1 J/K/kg
280.72 K, relaxation calorimetry	249.15 J/K/kg
280.84 K, relaxation calorimetry	248.06 J/K/kg
282.72 K, relaxation calorimetry	248.48 J/K/kg
282.83 K, relaxation calorimetry	248.37 J/K/kg
285 K, Extra sensitive DSC	249.51 J/K/kg
288.98 K, relaxation calorimetry	249.72 J/K/kg
289.06 K, relaxation calorimetry	248.53 J/K/kg
290 K, Extra sensitive DSC	249.92 J/K/kg
290.72 K, relaxation calorimetry	248.79 J/K/kg
290.85 K, relaxation calorimetry	248.94 J/K/kg
294.72 K, relaxation calorimetry	248.58 J/K/kg
294.84 K, relaxation calorimetry	249.25 J/K/kg
295 K, Extra sensitive DSC	250.03 J/K/kg
297.48 K, relaxation calorimetry	249.25 J/K/kg
297.56 K, relaxation calorimetry	248.74 J/K/kg
298.75 K, relaxation calorimetry	248.74 J/K/kg
298.86 K, relaxation calorimetry	250.59 J/K/kg
300 K, Extra sensitive DSC	250.18 J/K/kg
303.85 K, relaxation calorimetry	252.19 J/K/kg
303.86 K, relaxation calorimetry	252.14 J/K/kg
305 K, Extra sensitive DSC	250.39 J/K/kg
305.75 K, relaxation calorimetry	251.52 J/K/kg
305.8 K, relaxation calorimetry	251.11 J/K/kg
306.87 K, relaxation calorimetry	252.97 J/K/kg and 252.76 J/K/kg
310 K, Extra sensitive DSC	251.42 J/K/kg
315 K, Extra sensitive DSC	252.09 J/K/kg
320 K, Extra sensitive DSC	251.78 J/K/kg
325 K, Extra sensitive DSC	252.3 J/K/kg
330 K, Extra sensitive DSC	253.12 J/K/kg
335 K, Extra sensitive DSC	254.52 J/K/kg
340 K, Extra sensitive DSC	254.88 J/K/kg
345 K, Extra sensitive DSC	255.7 J/K/kg
350 K, Extra sensitive DSC	256.89 J/K/kg
355 K, Extra sensitive DSC	257.82 J/K/kg
357.87 K, Extra sensitive DSC	258.59 J/K/kg
